These results are taken from ChEMBL document CHEMBL3507680, “University of Dundee, Gates Library screen for HepG2 cell viability”.

The data set is described as follows: Human HepG2 cell viability assay in 384 well format. It is filed as toxicity, cell-based. The arrangement: dose 125 nL, time 70.5 hour; concentration not given beside the values. To be noted: HepG2 cells, read-out: Inhibition.
Regarding `Cc1cn(CC(=O)N(C)Cc2cccc3ncccc23)c(=O)[nH]c1=O`, the cytotoxicity at 70.5 h worked out at 6.82%.
In the case of `Cc1cnc2c(S(=O)(=O)NCC3CC3)cccc2c1`, the cytotoxicity at 70.5 h is -1.56%.
For `O=S(=O)(Cc1c(F)cccc1F)NCCOc1cccnc1` the value was 17.9%.
Regarding `Cc1nc(-c2ccccc2)n(CC(=O)NC2CCCC2)n1`, the cytotoxicity at 70.5 h was -13.6%.
For the compound `COCCN(CCOC)C(=O)c1ccc(Cn2nc(C)cc2C)cc1`, the cytotoxicity at 70.5 h is 7.43%.
For `FC(F)(F)c1ccc2nc([C@H]3CCN(C4CCC4)C3)[nH]c2c1` the value was -7.81%.
Turning to `CCc1noc(C(C)N(C)CC(=O)Nc2ccc(Cl)c(C(F)(F)F)c2)n1` (centres undefined), the cytotoxicity at 70.5 h was -97%.
For `COCCC1(CO)CCCN(C(=O)CCC(F)(F)F)C1` (centres undefined) the value was -10.8%.
For `COCCOc1ccc(S(=O)(=O)Nc2cccnc2O)cc1C` the value was -4.13%; for `Cc1ccc(CNCC2Cn3nncc3CO2)o1` (centres undefined), -3.52%.
For `O=C(O)c1cc2c(nc1N1CCOCC1)CCN(C1CCOC1)CC2` (centres undefined) the value was -4.23%; for `COCCc1noc(CN(C)C(=O)C2COc3ccccc3C2)n1` (centres undefined), -5.1%; for `CCNc1ccc(-c2ccnc3c2ccn3C)nn1`, -5.15%.
Take `CC(=O)N1CCOC(c2c(C(=O)NCCN(C)C)sc3ccccc23)C1` (centres undefined): the cytotoxicity at 70.5 h was -7.61%.
For `Cc1nccn1C1CCCN(C(=O)CCOCC(F)(F)F)C1` (centres undefined) the value was 17.2%; for `COc1cccc(CN(C)S(=O)(=O)N2CCOCC2)c1`, 2.16%.
For `NC(=O)c1cccc(CC2CCN(C(=O)Cn3cnnn3)C2)c1` (centres undefined) the value was -10.5%; for `COCCN1C(=O)[C@H]2CC[C@@H]1CN(c1ncccn1)C2`, 11.5%; for `CC(CS(C)(=O)=O)N(C(=O)Nc1cc(F)ccc1Cl)C1CC1` (centres undefined), 2.35%.
In the case of `CNC(=O)C1CCCCN1C(=O)c1csc(-c2ccc(C)cc2)n1` (centres undefined), the cytotoxicity at 70.5 h was -9.54%.
Consider `CCc1nc2ccccc2c(=O)n1CC1(O)CCN(S(C)(=O)=O)CC1`, for which the cytotoxicity at 70.5 h is -20.2%.
For `Cc1nn(C)cc1-c1cc(C(=O)N2CCc3ncc(Cl)cc3C2)no1` the value was 0.792%.
For `COc1cc(OC)c(C2CC(=O)Oc3cc(C)[nH]c(=O)c32)c(OC)c1` (centres undefined) the value was -20.1%; for `COC1CCN(S(=O)(=O)N2CCCC2c2ccco2)CC1` (centres undefined), 0.386%; for `COCCN1CC[C@H](O)[C@@H]1Cc1ccccc1`, -16.7%.
As for `COc1ccc2c(c1)nc1n2[C@@H](CNCc2nccs2)COC1`, the cytotoxicity at 70.5 h was -13.7%.
On to `CC1c2ncc(COCC3CCOCC3)n2CCN1C(=O)c1ccoc1` (centres undefined), for which the cytotoxicity at 70.5 h was -2.87%.
For `CS(=O)(=O)c1cn[nH]c1C1CCCN1C(=O)c1cccnc1` (centres undefined) the value was -2.09%; for `CN1CCc2c(NC(=O)NCc3ccccc3Cl)cccc21`, -1.74%; for `Cc1nccc(NCc2cc3n(n2)CCCN(S(C)(=O)=O)C3)n1`, -3.08%.
Turning to `CC(NC(=O)Cn1cc(C(N)=O)c(-c2ccccc2)n1)C1CC1` (centres undefined), the cytotoxicity at 70.5 h is -10%.
For `Cc1ccnn1CCNC(=O)C1CCN(S(=O)(=O)c2ccc(F)cc2)C1` (centres undefined) the value was 6.47%.
For `Cc1cc(CN2CCN(C(=O)c3sccc3C(C)C)CC2)no1` the value was -0.556%.
On to `COc1cc(CN(C)C(C)c2ccccn2)cc2c1OCO2` (centres undefined), for which the cytotoxicity at 70.5 h was -13.1%.
For `Cc1cc(C(=O)N2CCCCC2C)ccc1NCCCO` (centres undefined) the value was -17.1%; for `CCNC(=O)[C@@H]1C[C@@H](N)CN1Cc1ccc(-c2ccccc2C#N)o1`, -6.11%.
For `COc1ccccc1CNC(=O)c1ccccc1-n1cnc(CN)c1`, the cytotoxicity at 70.5 h was -9.04%.
For `CCn1nc(C)cc1C(=O)OCC1CC(=O)N(Cc2ccccc2)C1` (centres undefined) the value was 0.617%; for `Cc1nc(CN(C)C2CCN(Cc3cccc(F)c3)C2)no1` (centres undefined), 1.26%.
